Experimental data from article PMC9747239, “State-selective modulation of heterotrimeric Gαs signaling with macrocyclic peptides” (Cell, 2022).
Where a SMILES comes first, the peptide text is derived from it. Bridges are numbered along the chain shown (N, C = ends). Where no end group is shown, it is not given here. [ ]: non-standard residue; d: D form. The star is where a group is joined. NH(CH2CH2O)2(CH2)6Cl = ClCCCCCCOCCOCCN*

T1: Biotinylated Avi-Gαs (WT), residues 7-380 of the short isoform of human Gαs (human, biotin on the Avi tag)
T1 construct: Gαs (GNAS), human, short isoform (380 residues), residues 7-380; Loaded with GppNHp (GNP) or GDP as the assay says; also called Biotinylated Gαs/GNP; Biotinylated Gαs/GDP; source: E. coli BL21(DE3), purified (TALON, Source-15Q, gel filtration), biotinylated with BirA; not shown: Avi tag, N-terminal, kept; His6, N-terminal, cleaved
T1 chain: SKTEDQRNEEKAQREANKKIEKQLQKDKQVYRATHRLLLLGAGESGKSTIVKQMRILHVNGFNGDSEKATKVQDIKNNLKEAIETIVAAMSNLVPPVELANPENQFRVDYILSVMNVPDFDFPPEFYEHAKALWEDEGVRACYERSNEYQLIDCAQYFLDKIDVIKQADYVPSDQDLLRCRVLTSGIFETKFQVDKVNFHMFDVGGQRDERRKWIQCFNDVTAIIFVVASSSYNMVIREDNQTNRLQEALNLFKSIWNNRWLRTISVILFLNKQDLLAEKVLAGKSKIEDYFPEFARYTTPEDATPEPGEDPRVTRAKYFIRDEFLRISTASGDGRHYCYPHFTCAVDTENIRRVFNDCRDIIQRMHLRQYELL

B1: GD20 (peptide)
peptide: {CH2CO}-[dY]LITFRQWAFNLPCG
modifications: thioether N-14
notes: Selected by RaPID mRNA display; Synthesised on NovaPEG Rink Amide resin, so a C-terminal amide is surmised; source: synthetic peptide (Fmoc solid phase synthesis, cyclised, RP-HPLC)

Legend:
HeLa cells = assay: Chloroalkane penetration assay (CAPA); format: cell-based, human; details: HeLa cells expressing HaloTag, 19.5 h incubation
Description: The cell lines used for CAPA were HeLa cell lines, generated by Chenoweth and co-workers, that stably express HaloTag exclusively in the cytosol ([Peraro et al., 2018]). Cells were seeded in a 96-well plate the day before the experiment at a density of 4 × 10^4 cells per well. The day of the experiment the media was aspirated, and 100 μL of cyclic peptide dilutions in DMEM were added to the cells. Plate was incubated for 19.5 h at 37°C with 5% CO2. The contents of the wells were aspirated off, and wells were washed using fresh Opti-MEM for 15 min. The wash was aspirated off, and the cells were chased using 5 μM ct-TAMRA for 15 min, except for the No-ct-TAMRA control wells, which were incubated with Opti-MEM alone. The contents of the wells were aspirated and washed with fresh Opti-MEM for 30 min. After aspiration, cells were rinsed once with PBS (PBS). The cells were then trypsinized, quenched with DMEM, resuspended in PBS, and analyzed using a benchtop flow cytometer (CytoFLEX, Beckman). Final [cyclic peptide]: 0, 0.034, 0.10, 0.31, 0.93, 2.78, 8.33, 25 μM.

[1] = biological target: T1, Biotinylated Avi-Gαs (WT), residues …; assay: BLI; biotinylated Gαs loaded with GDP immobilised on streptavidin biosensors (2-3 nm), cyclic peptide as analyte (4.12-1000 nM), association 120 s, dissociation 120 s, 25 °C, 10 mM HEPES pH 7.4, 150 mM NaCl, 1 mM MgCl2, 0.05% Tween 20, 0.1% DMSO, 0.2 mM GDP; double reference subtraction, 1:1 binding model; details: both partners purified

| Molecule | cell penetration (CAPA) (HeLa cells) | koff [1] | kon [1] |
| --- | --- | --- | --- |
| CC[C@H](C)[C@@H]1NC(=O)[C@H](CC(C)C)NC(=O)[C@@H](Cc2ccc(O)cc2)NC(=O)CSC[C@@H](C(=O)NCC(=O)NCCOCCOCCCCCCCl)NC(=O)[C@@H]2CCCN2C(=O)[C@H](CC(C)C)NC(=O)[C@H](CC(N)=O)NC(=O)[C@H](Cc2ccccc2)NC(=O)[C@H](C)NC(=O)[C@H](Cc2c[nH]c3ccccc23)NC(=O)[C@H](CCC(N)=O)NC(=O)[C@H](CCCNC(=N)N)NC(=O)[C@H](Cc2ccccc2)NC(=O)[C@H]([C@@H](C)O)NC1=O [ct-GD20] ({CH2CO}-[dY]LITFRQWAFNLPCG-{NH(CH2CH2O)2(CH2)6Cl}; thioether N-14) | cell permeable | – | – |
| CC[C@H](C)[C@@H]1NC(=O)[C@H](CC(C)C)NC(=O)[C@@H](Cc2ccc(O)cc2)NC(=O)CSC[C@@H](C(=O)NCC(=O)NCCOCCOCCCCCCCl)NC(=O)[C@@H]2CCCN2C(=O)[C@H](CC(C)C)NC(=O)[C@H](CC(N)=O)NC(=O)[C@H](CC(C)C)NC(=O)[C@H](C)NC(=O)[C@H](Cc2c[nH]c3ccccc23)NC(=O)[C@H](CCC(N)=O)NC(=O)[C@H](CCCNC(=N)N)NC(=O)[C@H](Cc2ccccc2)NC(=O)[C@H]([C@@H](C)O)NC1=O [ct-GD20-F10L] ({CH2CO}-[dY]LITFRQWALNLPCG-{NH(CH2CH2O)2(CH2)6Cl}; thioether N-14) | further improved cell penetration | – | – |
| CC[C@H](C)[C@@H]1NC(=O)[C@H](C)NC(=O)[C@H](Cc2ccc(O)cc2)NC(=O)[C@H](C(C)C)NC(=O)[C@H](CO)NC(=O)[C@H](CCC(N)=O)NC(=O)[C@H](Cc2ccccc2)NC(=O)[C@@H](Cc2ccc(O)cc2)NC(=O)CSC[C@@H](C(=O)NCC(=O)NCCOCCOCCCCCCCl)NC(=O)[C@H](CC(C)C)NC(=O)[C@H]([C@@H](C)O)NC(=O)CNC(=O)[C@H](Cc2c[nH]c3ccccc23)NC1=O [ct-GN13-E3Q] ({CH2CO}-[dY]FQSVYAIWGTLCG-{NH(CH2CH2O)2(CH2)6Cl}; thioether N-13) | measurable cell penetration | – | – |
| B1 | – | 0.00343 s⁻¹ | 109000 M⁻¹ s⁻¹ |
